Experimental data reported in US8507518B2, “Method of treating mantle cell lymphoma” (Mayo Foundation for Medical Education and Research, priority 2003, dated 2013).

What was measured:
mantle cell lymphoma [1] = test: Phase II trial of single-agent CCI-779, 250 mg IV weekly, in relapsed mantle cell lymphoma (NCCTG); type: in vivo, human
Experimental: The ability of a CCI-779 to treat or inhibit mantle cell lymphoma was evaluated in a clinical trial. Briefly, 18 patients (mean age 72 years, range 38-89 years) were treated with an intravenous dose of 250 mg CCI-779 on days 1, 8, 15, and 22 of a 4 week treatment cycle, for up to a maximum of 12 cycles. Of these patients, 15 were stage IV, 2 were stage III, and 1 was stage II. […] Only 3 patients progressed before the end of the cycle. Based on the results obtained in this clinical trial, CCI-779 is useful in the treatment or inhibition of mantle cell lymphoma.
This study was conducted through the North Central Cancer Treatment Group (NCCTG) cooperative group. Patients were eligible for this trial if they had previously received therapy and had relapsed. There was no limit on the number of prior therapies. All histologies were confirmed to be mantle cell lymphoma by central pathology review. Cyclin-D1 positivity was required by immunohistochemistry or t(11;14) detected by FISH. Patients were required to have measurable disease with a lymph node or tumor mass≧2 cm or malignant lymphocytosis with an ALC≧5,000; a life expectancy of ≧3 months, ECOG performance status of 0, 1, or 2; absolute neutrophil count (ANC)≧1,000; platelets≧75,000; hemoglobin≧8 g/dL; serum creatinine≦2× the upper limit of normal (UNL); serum bilirubin≦1.5 UNL; serum cholesterol≦350 mg/dL; and triglycerides≦400 mg/dL. Patients could not have known central nervous system involvement or HIV infection.
(§1) Patients were treated with a flat dose of 250 mg of CCI-779 diluted in 250 mL of normal saline and delivered IV over 30 minutes. Patients were pretreated with diphenhydramine 25-50 mg IV. Treatment was weekly and a cycle was considered 4 weeks. A complete blood count was performed each week and a full dose delivered if the platelet count was ≧50,000 and the ANC≧1000 and there was no grade 3 non-hematologic toxicity (using the NCI Common Toxicity Criteria version 2). […] Patients were not to receive prophylactic white blood cell growth factors to maintain dosing but could receive them at time of neutropenia at physician discretion. Erythropoietin could be used.
Patients were restaged after 1, 3, and 6 cycles and the response assessed as per the international workshop criteria. [B. D. Cheson, et al., “Report of an International Workshop to Standardize Response Criteria for Non-Hodgkin's Lymphomas”, Journal of Clinical Oncology, Vol 17, Issue 4 (April), 1999: 1244]. Patients who progressed anytime or those patients with stable disease after 6 cycles went off study.
A single stage phase II study with an interim analysis was conducted to assess the proportion of previously treated mantle cell lymphoma patients who achieved a PR or better after treatment with CCI-779. This trial was designed to test the null hypothesis that the true response rate was at most 0.05. The smallest response rate that would indicate that this regimen was worth further study in this patient population was 0.20. The design was generated based on the parameters and assumptions of a two-stage Simon MinMax™ design, but where accrual was not suspended for the interim analysis. This study design required a maximum of 32 evaluable patients, where the interim analysis was performed after 18 patients had been accrued and followed for at least 24 weeks. An additional 3 patients were accrued to this cohort (for a maximum of 35 patients overall) to account for the possibilities of ineligibility, withdrawal from study prior to drug administration, or major violations. However, only the first 32 evaluable patients were used to evaluate the decision criteria for this design. At least one response in the first 18 evaluable patients needed to be observed in the interim analysis to continue accrual. At the time of the final analyses, a total of four or more responses were required to indicate that this regimen warrants further evaluation in this patient population. […]

mantle cell lymphoma [2] = test: Phase II study of low dose single-agent CCI-779, 25 mg/week, in relapsed mantle cell lymphoma; type: in vivo, human
Experimental: Eleven patients (4 refractory, […], ranging from 55 to 85 years old) with MCL were enrolled in a Phase II study of CCI-779 and were treated as described in Example 1 above, with the exception that they received a 10-fold lower dose than in Example 1, i.e., 25 mg/week. Eight patients (73%) were in stage 4, two (18%) in stage 3, and 4 (36%) had ≧2 extranodal sites. Patients had received a median of 3 prior therapies (range, 1-7) and 3 were refractory to their last treatment.

[3] = Stability of CCI-779 in parenteral cosolvent formulation with antioxidant/chelating agent; type: physicochemical; details: citric acid at a concentration of less than 0.01% w/v
Excerpt: In this embodiment, the stability of a CCI-779 in parenterally acceptable alcoholic cosolvents is enhanced by addition of an antioxidant to the formulation. Acceptable antioxidants include, but are not limited to, citric acid, d,l-α-tocopherol, BHA, BHT, monothioglycerol, ascorbic acid, propyl gallate, and mixtures thereof. Generally, the parenteral formulations useful in this embodiment of the invention will contain an antioxidant component(s) in a concentration ranging from 0.001% to 1% w/v, or 0.01% to 0.5% w/v, of the cosolvent concentrate, although lower or higher concentrations may be desired. Of the antioxidants, d,l-α-tocopherol is particularly desirable and is used at a concentration of 0.01 to 0.1% w/v with a preferred concentration of 0.075% w/v of the cosolvent concentrate.
Examples of such chelating agents include, e.g., citric acid, acetic acid, and ascorbic acid (which may function as both a classic antioxidant and a chelating agent in the present formulations). Other chelating agents include such materials as are capable of binding metal ions in solution, such as ethylene diamine tetra acetic acid (EDTA), its salts, or amino acids such as glycine are capable of enhancing the stability of a CCI-779. […] Optimal concentrations for the selected antioxidant(s) can be readily determined by one of skill in the art, based upon the information provided herein.

[4] = Safety and tolerability in the phase II trial of CCI-779 250 mg IV weekly; type: in vivo, human
Experimental: as §1
All 35 patients were included in the analysis of safety and tolerability. During the 30 minute infusion, CCI-779 was well-tolerated and there were no significant toxicities that occurred. Thrombocytopenia was the cause of most dose reductions and was rapidly reversible with drug delays of typically only one week. Only three patients required platelet transfusions, and four patients required red blood cell transfusions. Thirteen patients experienced grade 3 infections without concomitant neutropenia; two patients had febrile neutropenia and three had infection (grade 3) with neutropenia. […] The conclusion was that this was idiopathic Bell's palsy and indeed it eventually resolved. A possible relationship to CCI-779 could not be established nor eliminated. The patient who experienced blurred vision was diagnosed with retinitis due to reactivation of cytomegalovirus (CMV) infection.

[5] = overall, median follow-up 11 months

SMILES: CO[C@H]1C[C@@H]2CC[C@@H](C)[C@@](O)(O2)C(=O)C(=O)N2CCCC[C@H]2C(=O)O[C@H]([C@H](C)C[C@@H]2CC[C@@H](OC(=O)C(C)(CO)CO)[C@H](OC)C2)CC(=O)[C@H](C)/C=C(\C)[C@@H](O)[C@@H](OC)C(=O)[C@H](C)C[C@H](C)/C=C/C=C/C=C/1C [CCI-779, rapamycin 42-ester with 3-hydroxy-2-(hydroxymethyl)-2-methylpropionic acid]
- overall response rate (ORR) (mantle cell lymphoma [1]; 13/34 patients, 250 mg IV weekly, 90% CI 24%-54%): 38%
- median duration of response (mantle cell lymphoma [1]; 13 responders, 95% CI 4-13.2 months): 5.7 months
- overall response rate (mantle cell lymphoma [1]; 18 patients, 250 mg IV days 1, 8, 15, 22 of 4 week cycle, 95% CI 24%-68%): 44.4%
- patients progressed before the end of the cycle (mantle cell lymphoma [1]; 18 patients, 250 mg IV weekly): 3 patients
- patients with complete response (CR) (mantle cell lymphoma [1]; 18 patients, 250 mg IV weekly): One
- patients with partial response (PR) (mantle cell lymphoma [1]; 18 patients, 250 mg IV weekly): 7 patients
- number of CR (mantle cell lymphoma [1]; 34 patients, 250 mg IV weekly): 1
- number of PRs (mantle cell lymphoma [1]; 34 patients, 250 mg IV weekly): 12
- median time to progression (mantle cell lymphoma [1]; 95% CI 3.8-9.4 months): 6.2 months
- median overall survival (mantle cell lymphoma [1]; 95% CI 6.7 months to not yet reached): 12 months
- responses after 4 months evaluation (mantle cell lymphoma [1]; of 13 responders): 1
- responses after 8 months evaluation (mantle cell lymphoma [1]; of 13 responders): 1
- responses after the first cycle evaluation (mantle cell lymphoma [1]; of 13 responders): Eight
- responses documented after 3 cycles (mantle cell lymphoma [1]; of 13 responders): 3
- patients who have died (mantle cell lymphoma [1]; [5]): 22 patients
- patients with disease progression (mantle cell lymphoma [1]; [5]): 29 patients
- median time to response (mantle cell lymphoma [1]; range 1-8): 1 month
- anti-tumor activity in relapsed MCL (mantle cell lymphoma [1]; single agent): substantial anti-tumor activity
- overall response rate (mantle cell lymphoma [2]; 7/11 patients): 64%
- number of PRs (mantle cell lymphoma [2]; 11 patients): 7
- effect of citric acid on stability of CCI-779 [3]: enhanced the stability
- adverse event, all grades: AST elevations ([4]; 35 patients): 43%
- adverse event, all grades: abnormal taste ([4]; 35 patients): 43%
- adverse event, all grades: anemia ([4]; 35 patients): 66%
- adverse event, all grades: fatigue ([4]; 35 patients): 66%
- adverse event, all grades: hypercholesterolemia ([4]; 35 patients): 40%
- adverse event, all grades: hyperglycemia ([4]; 35 patients): 91%
- adverse event, all grades: increased triglycerides ([4]; 35 patients): 77%
- adverse event, all grades: infection without concomitant neutropenia ([4]; 35 patients): 63%
- adverse event, all grades: loss of appetite ([4]; 35 patients): 40%
- adverse event, all grades: mucositis ([4]; 35 patients): 71%
- adverse event, all grades: nausea ([4]; 35 patients): 49%
- adverse event, all grades: neutropenia ([4]; 35 patients): 77%
- adverse event, all grades: rash ([4]; 35 patients): 51%
- adverse event, all grades: sensory neurophathy ([4]; 35 patients): 37%
- adverse event, all grades: thrombocytopenia ([4]; 35 patients): 100%
- adverse event, all grades: weight loss ([4]; 35 patients): 46%
- grade 5 events (deaths on treatment) ([4]; 35 patients): No grade 5 events
- patients requiring platelet transfusions ([4]; 35 patients): three
- patients requiring red blood cell transfusions ([4]; 35 patients): four
- patients with febrile neutropenia ([4]; 35 patients): two
- patients with grade 3 infections without concomitant neutropenia ([4]; 35 patients): Thirteen
- patients with infection (grade 3) with neutropenia ([4]; 35 patients): three
- tolerability during the 30 minute infusion ([4]; 35 patients): well-tolerated
- median time to discontinuation of treatment ([4]; 95% CI 3-6.2 months): 3.7 months
- patients who went off treatment due to adverse reactions ([4]; of 28 patients who discontinued treatment): 7
- dose reductions necessary ([4]; starting dose 250 mg weekly): all but 4 patients
